Measured values as given in patent US12310975B2, “Modulators of BCL6 proteolysis and associated methods of use” (Arvinas Operations, Inc., priority 2019, dated 2025).

Legend:
BCL6 [1] = biological target: T1, BCL6 (Homo sapiens (Human), UniProt P41182); test: Immunofluorescence high content imaging of BCL6 degradation in T47D cells; assay type: cell-based; conditions: for Dmax: T47D
Method in brief: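 T47D, 3 d compound exposure, 11-pt 3-fold series, top 0.1 or 1 μM final. Fix 4% PFA, Triton permeabilize, anti-BCL6 primary overnight 4 °C, Alexa-488 secondary. High-content imaging 10×, 4 fields/well, top-hat smoothing.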

BCL6 [2] = biological target: T1, BCL6; test: BCL6 TR-FRET assay (BCL6-Avitag-Biotin / BCoR-Cy5 peptide); assay type: binding
Method in brief: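 After 30 min room-temperature preincubation of compound titrations with 2 nM biotinylated BCL6-Avitag, 100 nM Cy5-labelled BCoR peptide plus 2 nM Eu-streptavidin were added and TR-FRET read 2 h later. HEPES pH 7.5/125 mM NaCl buffer with Triton X, glutathione (or DTT) and BSA.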

Row | Structure (SMILES) | IC50 (BCL6 [1]) | Dmax (BCL6 [1]) | EC50 (BCL6 [2])
1 | CNC(=O)COc1cc2cc(Nc3nc(N4CCN(CC5CCN(c6cccc7c6C(=O)N(C6CCC(=O)NC6=O)C7=O)CC5)CC4)ncc3Cl)ccc2n(C)c1=O (stereo not drawn) [compound 207, 2-((6-((5-chloro-2-(4-((1-(2-(2,6-dioxopiperidin-3-yl)-1,3-dioxoisoindolin-4-yl)piperidin-4-yl)methyl)piperazin-1-yl)pyrimidin-4-yl)amino)-1-methyl-2-oxo-1,2-dihydroquinolin-3-yl)oxy)-N-methylacetamide] | < 10 nM | ≥ 70% | 10 to 50 nM
2 | CNC(=O)COc1cc2cc(Nc3nc(N4CCCN(c5ccc6c(c5)C(=O)N(C5CCC(=O)NC5=O)C6=O)CC4)ncc3Cl)ccc2n(C)c1=O (stereo not drawn) [compound 208, 2-((6-((5-chloro-2-(4-(2-(2,6-dioxopiperidin-3-yl)-1,3-dioxoisoindolin-5-yl)-1,4-diazepan-1-yl)pyrimidin-4-yl)amino)-1-methyl-2-oxo-1,2-dihydroquinolin-3-yl)oxy)-N-methylacetamide] | 50 to 100 nM | 50 to 70% | 50 to 100 nM
3 | CONC(=O)COc1cc2cc(Nc3nc(N4CCC(CN5CCN(c6ccc7c(c6)C(=O)N(C6CCC(=O)NC6=O)C7=O)CC5)CC4)ncc3Cl)ccc2n(C)c1=O (stereo not drawn) [compound 209, 2-((6-((5-chloro-2-(4-((4-(2-(2,6-dioxopiperidin-3-yl)-1,3-dioxoisoindolin-5-yl)piperazin-1-yl)methyl)piperidin-1-yl)pyrimidin-4-yl)amino)-1-methyl-2-oxo-1,2-dihydroquinolin-3-yl)oxy)-N-methoxyacetamide] | 10 to 50 nM | ≥ 70% | > 100 nM
4 | CNC(=O)[C@@H](C)Oc1cc2cc(Nc3nc(N4CCC(CN5CCN(c6ccc7c(c6)C(=O)N([C@H]6CCC(=O)NC6=O)C7=O)CC5)CC4)ncc3Cl)ccc2n(C)c1=O [compound 210, (R)-2-((6-((5-chloro-2-(4-((4-(2-((S)-2,6-dioxopiperidin-3-yl)-1,3-dioxoisoindolin-5-yl)piperazin-1-yl)methyl)piperidin-1-yl)pyrimidin-4-yl)amino)-1-methyl-2-oxo-1,2-dihydroquinolin-3-yl)oxy)-N-methylpropanamide] | ≥ 100 nM | – | 10 to 50 nM
5 | CNC(=O)[C@H](C)Oc1cc2cc(Nc3nc(N4CCC(CN5CCN(c6ccc7c(c6)C(=O)N([C@H]6CCC(=O)NC6=O)C7=O)CC5)CC4)ncc3Cl)ccc2n(C)c1=O [compound 211, (S)-2-((6-((5-chloro-2-(4-((4-(2-((S)-2,6-dioxopiperidin-3-yl)-1,3-dioxoisoindolin-5-yl)piperazin-1-yl)methyl)piperidin-1-yl)pyrimidin-4-yl)amino)-1-methyl-2-oxo-1,2-dihydroquinolin-3-yl)oxy)-N-methylpropanamide] | ≥ 100 nM | – | > 100 nM
6 | CNC(=O)[C@@H](C)Oc1cc2cc(Nc3nc(N4CCC(CN5CCN(c6ccc7c(c6)C(=O)N([C@@H]6CCC(=O)NC6=O)C7=O)CC5)CC4)ncc3Cl)ccc2n(C)c1=O [compound 212, (R)-2-((6-((5-chloro-2-(4-((4-(2-((R)-2,6-dioxopiperidin-3-yl)-1,3-dioxoisoindolin-5-yl)piperazin-1-yl)methyl)piperidin-1-yl)pyrimidin-4-yl)amino)-1-methyl-2-oxo-1,2-dihydroquinolin-3-yl)oxy)-N-methylpropanamide] | ≥ 100 nM | – | 10 to 50 nM
7 | CNC(=O)[C@H](C)Oc1cc2cc(Nc3nc(N4CCC(CN5CCN(c6ccc7c(c6)C(=O)N([C@@H]6CCC(=O)NC6=O)C7=O)CC5)CC4)ncc3Cl)ccc2n(C)c1=O [compound 213, (S)-2-((6-((5-chloro-2-(4-((4-(2-((R)-2,6-dioxopiperidin-3-yl)-1,3-dioxoisoindolin-5-yl)piperazin-1-yl)methyl)piperidin-1-yl)pyrimidin-4-yl)amino)-1-methyl-2-oxo-1,2-dihydroquinolin-3-yl)oxy)-N-methylpropanamide] | ≥ 100 nM | – | > 100 nM
8 | CNC(=O)c1cc2cc(Nc3nc(N4CCC(CN5CCN(c6ccc7c(c6)C(=O)N(C6CCC(=O)NC6=O)C7=O)CC5)CC4)ncc3Cl)ccc2n(C)c1=O (stereo not drawn) [compound 214, 6-((5-chloro-2-(4-((4-(2-(2,6-dioxopiperidin-3-yl)-1,3-dioxoisoindolin-5-yl)piperazin-1-yl)methyl)piperidin-1-yl)pyrimidin-4-yl)amino)-N,1-dimethyl-2-oxo-1,2-dihydroquinoline-3-carboxamide] | ≥ 100 nM | – | > 100 nM
9 | CNC(=O)COc1cc2cc(Nc3nc(N4CCCN(CC5CCN(c6ccc7c(c6)C(=O)N(C6CCC(=O)NC6=O)C7=O)CC5)CC4)ncc3Cl)ccc2n(C)c1=O (stereo not drawn) [compound 215, 2-((6-((5-chloro-2-(4-((1-(2-(2,6-dioxopiperidin-3-yl)-1,3-dioxoisoindolin-5-yl)piperidin-4-yl)methyl)-1,4-diazepan-1-yl)pyrimidin-4-yl)amino)-1-methyl-2-oxo-1,2-dihydroquinolin-3-yl)oxy)-N-methylacetamide] | 10 to 50 nM | < 50% | 50 to 100 nM
10 | CC(=O)[C@@H](C)Oc1cc2cc(Nc3nc(N4CCC(CN5CCN(c6ccc7c(c6)C(=O)N([C@H]6CCC(=O)NC6=O)C7=O)CC5)CC4)ncc3Cl)ccc2n(C)c1=O [compound 216, 5-(4-((1-(5-chloro-4-((1-methyl-2-oxo-3-(((R)-3-oxobutan-2-yl)oxy)-1,2-dihydroquinolin-6-yl)amino)pyrimidin-2-yl)piperidin-4-yl)methyl)piperazin-1-yl)-2-((S)-2,6-dioxopiperidin-3-yl)isoindoline-1,3-dione] | 10 to 50 nM | < 50% | > 100 nM
11 | CC(=O)[C@H](C)Oc1cc2cc(Nc3nc(N4CCC(CN5CCN(c6ccc7c(c6)C(=O)N([C@H]6CCC(=O)NC6=O)C7=O)CC5)CC4)ncc3Cl)ccc2n(C)c1=O [compound 217, 5-(4-((1-(5-chloro-4-((1-methyl-2-oxo-3-(((S)-3-oxobutan-2-yl)oxy)-1,2-dihydroquinolin-6-yl)amino)pyrimidin-2-yl)piperidin-4-yl)methyl)piperazin-1-yl)-2-((S)-2,6-dioxopiperidin-3-yl)isoindoline-1,3-dione] | ≥ 100 nM | < 50% | > 100 nM
12 | CC(=O)[C@@H](C)Oc1cc2cc(Nc3nc(N4CCC(CN5CCN(c6ccc7c(c6)C(=O)N([C@@H]6CCC(=O)NC6=O)C7=O)CC5)CC4)ncc3Cl)ccc2n(C)c1=O [compound 218, 5-(4-((1-(5-chloro-4-((1-methyl-2-oxo-3-(((R)-3-oxobutan-2-yl)oxy)-1,2-dihydroquinolin-6-yl)amino)pyrimidin-2-yl)piperidin-4-yl)methyl)piperazin-1-yl)-2-((R)-2,6-dioxopiperidin-3-yl)isoindoline-1,3-dione] | ≥ 100 nM | < 50% | > 100 nM
13 | CC(=O)[C@H](C)Oc1cc2cc(Nc3nc(N4CCC(CN5CCN(c6ccc7c(c6)C(=O)N([C@@H]6CCC(=O)NC6=O)C7=O)CC5)CC4)ncc3Cl)ccc2n(C)c1=O [compound 219, 5-(4-((1-(5-chloro-4-((1-methyl-2-oxo-3-(((S)-3-oxobutan-2-yl)oxy)-1,2-dihydroquinolin-6-yl)amino)pyrimidin-2-yl)piperidin-4-yl)methyl)piperazin-1-yl)-2-((R)-2,6-dioxopiperidin-3-yl)isoindoline-1,3-dione] | 50 to 100 nM | < 50% | > 100 nM
14 | CNC(=O)COc1cc2cc(Nc3nc(N4CCN(C5CCN(c6cccc7c6C(=O)N(C6CCC(=O)NC6=O)C7=O)CC5)CC4)ncc3Cl)ccc2n(C)c1=O (stereo not drawn) [compound 220, 2-((6-((5-chloro-2-(4-(1-(2-(2,6-dioxopiperidin-3-yl)-1,3-dioxoisoindolin-4-yl)piperidin-4-yl)piperazin-1-yl)pyrimidin-4-yl)amino)-1-methyl-2-oxo-1,2-dihydroquinolin-3-yl)oxy)-N-methylacetamide] | < 10 nM | 50 to 70% | > 100 nM
15 | CNC(=O)COc1cc2cc(Nc3nc(N4CCC(OC5CCN(c6ccc7c(c6)C(=O)N(C6CCC(=O)NC6=O)C7=O)CC5)CC4)ncc3Cl)ccc2n(C)c1=O (stereo not drawn) [compound 221, 2-((6-((5-chloro-2-(4-((1-(2-(2,6-dioxopiperidin-3-yl)-1,3-dioxoisoindolin-5-yl)piperidin-4-yl)oxy)piperidin-1-yl)pyrimidin-4-yl)amino)-1-methyl-2-oxo-1,2-dihydroquinolin-3-yl)oxy)-N-methylacetamide] | < 10 nM | 50 to 70% | > 100 nM
16 | CNC(=O)COc1cc2cc(Nc3nc(N4CCO[C@@H](COc5ccc6c(c5)C(=O)N(C5CCC(=O)NC5=O)C6=O)C4)ncc3Cl)ccc2n(C)c1=O (stereo partly drawn) [compound 222, 2-((6-((5-chloro-2-((2R)-2-(((2-(2,6-dioxopiperidin-3-yl)-1,3-dioxoisoindolin-5-yl)oxy)methyl)morpholino)pyrimidin-4-yl)amino)-1-methyl-2-oxo-1,2-dihydroquinolin-3-yl)oxy)-N-methylacetamide] | 50 to 100 nM | < 50% | > 100 nM
17 | Cn1c(=O)c(-n2ccnc2)cc2cc(Nc3nc(N4CCC(CN5CCN(c6ccc7c(c6)C(=O)N(C6CCC(=O)NC6=O)C7=O)CC5)CC4)ncc3Cl)ccc21 (stereo not drawn) [compound 224, 5-(4-((1-(4-((3-(1H-imidazol-1-yl)-1-methyl-2-oxo-1,2-dihydroquinolin-6-yl)amino)-5-chloropyrimidin-2-yl)piperidin-4-yl)methyl)piperazin-1-yl)-2-(2,6-dioxopiperidin-3-yl)isoindoline-1,3-dione] | ≥ 100 nM | – | > 100 nM
